One data set concerns rabies virus CVS strain. As to the kind of experiment: microbe, parasite or virus in culture. Type of data set: cell-based. The conditions noted are these: for IC50: Lyssavirus rabies, read-out: IC50 values (anti-rabies, as worded in the text).
Another data set addresses rabies virus G protein (Rabies virus, UniProt O92284). As to the kind of experiment: biochemical. Type of data set: binding.
For another data set, the system named is Kunming mice. As to the kind of experiment: Acute toxicity test in Kunming mice. The conditions noted are these: oral, single dose, monitored for 7 days.
A further data set concerns BSR cells. As to the kind of experiment: Cytotoxicity in BSR cells. The note with it: Cytotoxic concentration required to inhibit BSR cell growth by 50%.
A short description of data set [1]: Cytotoxicity in Huh 7 cells. The conditions noted are these: human, Huh 7 cells.
Another data set has as its system pSARS-CoV-2. Type of data set: cell-based, SARS-CoV-2.
Another data set deals with Huh 7 cells. As to the kind of experiment: Cytotoxicity in Huh 7 cells. The conditions noted are these: Cytotoxic concentration required to inhibit Huh 7 cell growth by 50%.

Chain of rabies virus G protein (O92284 20-459 limits assumed): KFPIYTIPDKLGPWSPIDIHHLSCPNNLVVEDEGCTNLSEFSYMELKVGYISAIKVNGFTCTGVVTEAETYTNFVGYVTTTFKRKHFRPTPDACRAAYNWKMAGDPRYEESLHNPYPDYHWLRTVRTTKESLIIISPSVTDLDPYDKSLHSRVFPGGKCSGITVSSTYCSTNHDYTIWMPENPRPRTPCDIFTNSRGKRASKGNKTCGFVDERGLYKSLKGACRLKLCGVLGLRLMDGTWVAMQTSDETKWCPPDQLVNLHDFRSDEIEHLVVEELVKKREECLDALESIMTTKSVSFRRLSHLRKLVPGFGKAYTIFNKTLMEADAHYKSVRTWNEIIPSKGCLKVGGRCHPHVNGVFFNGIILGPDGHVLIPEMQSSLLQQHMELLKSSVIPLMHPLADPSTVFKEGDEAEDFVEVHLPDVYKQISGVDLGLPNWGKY

Turning to `CC(C)/N=c1\cc2n(-c3ccc(Cl)cc3)c3ccccc3nc-2cc1Nc1ccc(OC(F)(F)F)cc1` [Compound 7i, 2-p-Trifluoromethoxyanilino-3-isopropylimino-5-p-chlorophenyl-3,5-dihydro phenazine], the IC50 – broadly, the midpoint of a concentration-inhibition curve – with rabies virus CVS strain came out at 1770 nM.

In the case of `CC(C)/N=c1\cc2n(-c3ccccc3)c3ccccc3nc-2cc1Nc1ccc(Cl)cc1` [Compound 7l], the IC50 in the data set with rabies virus CVS strain stood at 1400 nM.

Turning to `CC(C)/N=c1\cc2n(-c3ccccc3)c3ccccc3nc-2cc1NCc1ccccc1` [Compound 7p, 2-Benzylamino-3-isopropylimino-5-phenyl-3,5-dihydrophenazine], in the data set on rabies virus CVS strain, the IC50 is 1400 nM.

With `CC(C)/N=c1\cc2n(-c3ccccc3)c3ccccc3nc-2cc1NCc1ccc(F)cc1` [Compound 7q, 2-p-Fluorobenzylamino-3-isopropylimino-5-phenyl-3,5-dihydrophenazine], the IC50 with rabies virus CVS strain is 1900 nM.

`COc1ccc(-n2c3c/c(=N\C(C)C)c(Nc4cccc(F)c4)cc-3nc3ccccc32)cn1` [Compound 15f, 2-m-Fluoroanilino-3-isopropylimino-5-(6-methoxy-3-pyridinyl)-3,5-dihydro phenazine]: the IC50 with rabies virus CVS strain is 1450 nM. At rabies virus G protein, the Kd (in general, the free concentration of one partner at which half of the binding sites on the other are occupied at equilibrium, for simple one-to-one binding) stood at 280 nM. Further, the “median lethal dose (LD50)” value with Kunming mice was “over 800 mg•kg^−1”.

Consider “2-Benzyl-3-imino-5-phenyl-3,5-dihydrophenazine [Compound 6l]”, for which, in the data set with rabies virus CVS strain, the EC50 – broadly, the concentration at which the effect is half-maximal – stood at 35.4 µM. The CC50 (usually the concentration at which the toxic effect on the cells reaches its halfway point) with BSR cells worked out at 35.4 µM.

As to `COc1ccc(-n2c3c/c(=N\C(C)C)c(Nc4ccc(F)cc4)cc-3nc3ccccc32)cn1` [Compound 15g, 2-p-Fluoroanilino-3-isopropylimino-5-(6-methoxy-3-pyridinyl)-3,5-dihydro phenazine], the IC50 in the data set on rabies virus CVS strain amounted to 1410 nM. In the data set on Kunming mice, the “median lethal dose (LD50)” value is “over 800 mg•kg^−1”.

In turn, `CC(C)/N=c1\cc2n(-c3ccc(F)cc3)c3ccccc3nc-2cc1Nc1ccc(F)cc1` [Compound 15b] had a CC50 at 24 h in data set [1] of over 200 µM.

As to `CC(C)/N=c1\cc2n(-c3ccc(Cl)cc3)c3ccccc3nc-2cc1NCc1ccc(Cl)cc1` [Compound 7k, 2-p-Chlorobenzylamino-3-isopropylimino-5-p-chlorophenyl-3,5-dihydrophena zine], the IC50 in the data set on rabies virus CVS strain is 760 nM.

Turning to “2-p-fluoroanilino-3-isopropylimino-5-p-chlorophenyl-3,5-dihydrophenazine [Compound 15a]”, the figures for the EC50 in the data set on rabies virus CVS strain and with pSARS-CoV-2 were 4.02 µM and 29.6 µM, respectively. Besides, the CC50 was over 200 µM with BSR cells and 17 µM in the data set with Huh 7 cells.

With `CC(C)/N=c1\cc2n(-c3ccc(Cl)cc3)c3ccccc3nc-2cc1Nc1ccc(Cl)cc1` [Compound 1, clofazimine, reference compound], at rabies virus G protein, binding was put at a Kd of 730 nM.
